Reference: patent US20060069132A1, “Azolecarboxamide herbicides” (priority 2004, published 2006)

Key:
[1] = tested on: barnyardgrass; assay: Test B flooded paddy test; type: in vivo, Echinochloa crus-galli; settings: 1000 g ai/ha, visual rating, scale 0 to 100 (0 no effect, 100 complete control), 13 to 15 days
Procedure, shortened: (§1)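 Scale 0–100: zero equals no visible effect, 100 complete control, judged by eye relative to controls. Timing: 13 to 15 days in greenhouse post-treatment. Growth stage at spraying: two leaves (paddy) or one to four leaves, 2–18 cm (postemergence).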

[2] = tested on: Surinam grass; assay: Test B pre-/postemergence herbicide test; type: in vivo, Urochloa decumbens; settings: for Surinam Grass plant response rating: postemergence, visual rating
Procedure, shortened: (§2)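 Visual rating, 0 (no effect) to 100 (complete control), versus untreated controls after 13–15 d in greenhouse. Pre- and postemergence applications (postemergence plants 2–18 cm, 1–4 leaves); flooded paddy arm at 2-leaf stage. Compounds in non-phytotoxic solvent plus surfactant.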

[3] = tested on: blackgrass; assay: Test B postemergence herbicide test; type: in vivo, Alopecurus myosuroides; settings: scale 0 (no effect) to 100 (complete control); for Plant response rating, Blackgrass: Postemergence, 500 g ai/ha, visual rating after 13 to 15 days; for Blackgrass plant response rating: postemergence, 125 g ai/ha, visual rating
Procedure, shortened: as §1

[4] = tested on: giant foxtail; assay: Test B pre-/postemergence herbicide test; type: in vivo, Setaria faberi
Procedure, shortened: as §2

[5] = tested on: pigweed; assay: Test B pre-/postemergence herbicide test; type: in vivo, Amaranthus retroflexus; settings: for Pigweed plant response rating: postemergence, visual rating
Procedure, shortened: as §2

[6] = tested on: rice; assay: Test B flooded paddy test; type: in vivo, Oryza sativa; settings: 1000 g ai/ha, visual rating, scale 0 to 100 (0 no effect, 100 complete control), 13 to 15 days
Procedure, shortened: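 Read-out: visual comparison with controls, scored 0 to 100, where 100 means complete control and 0 no effect. Formulated chemicals were applied postemergence to plants 2–18 cm tall (1- to 4-leaf), or to flooded-paddy plants at the 2-leaf stage, then held 13 to 15 days under glass.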

[7] = tested on: ducksalad; assay: Test C flooded paddy test; type: in vivo, Heteranthera limosa; settings: for Plant response rating, Ducksalad: 500 g ai/ha, visual rating after 12 to 14 days
[8] = tested on: smallflower umbrella sedge; assay: Test C flooded paddy test; type: in vivo, Cyperus difformis; settings: for Plant response rating, Sedge, Umbrella: 500 g ai/ha, visual rating after 12 to 14 days
[9] = tested on: corn; assay: Test B pre-/postemergence herbicide test; type: in vivo, Zea mays
Procedure, shortened: as §2

[10] = tested on: ducksalad; assay: Test B flooded paddy test; type: in vivo, Heteranthera limosa; settings: 1000 g ai/ha, visual rating, scale 0 to 100 (0 no effect, 100 complete control), 13 to 15 days
Procedure, shortened: as §1

[11] = tested on: barnyardgrass; assay: Test C flooded paddy test; type: in vivo, Echinochloa crus-galli; settings: for Plant response rating, Barnyardgrass: 500 g ai/ha, visual rating after 12 to 14 days
Procedure, shortened: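 Plants were grown to the 1- to 4-leaf stage (2–18 cm) and then treated postemergence, or grown to the 2-leaf stage for the flooded paddy test. They were held in a greenhouse for 12 to 14 days and then scored by eye against controls, where 0 is no effect and 100 is complete control.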

[12] = tested on: lambsquarters; assay: Test B pre-/postemergence herbicide test; type: in vivo, Chenopodium album; settings: for Lambsquarters plant response rating: postemergence, visual rating
Procedure, shortened: as §2

[13] = tested on: wild oat; assay: Test B postemergence herbicide test; type: in vivo, Avena fatua; settings: scale 0 (no effect) to 100 (complete control); for Plant response rating, Oat, Wild: Postemergence, 500 g ai/ha, visual rating after 13 to 15 days; for Oat, Wild plant response rating: postemergence, 125 g ai/ha, visual rating
Procedure, shortened: (§3)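 Greenhouse test; postemergence application to plants at 1–4 leaves (2–18 cm); paddy species at 2 leaves; evaluated visually vs controls at 13–15 days; scale 0–100 (100 = complete control).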

[14] = tested on: velvetleaf; assay: Test B pre-/postemergence herbicide test; type: in vivo, Abutilon theophrasti; settings: for Velvetleaf plant response rating: postemergence, visual rating
Procedure, shortened: as §2

[15] = tested on: morningglory; assay: Test B pre-/postemergence herbicide test; type: in vivo, Ipomoea coccinea; settings: for Morningglory plant response rating: postemergence, visual rating
Procedure, shortened: (§4)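 Formulation: non-phytotoxic solvent mix with surfactant. Timing: preemergence on seed and postemergence on 2–18 cm plants, applied concurrently. Readout after 13–15 d greenhouse: visual 0–100 control rating against controls.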

[16] = tested on: rice; assay: Test B pre-/postemergence herbicide test; type: in vivo, Oryza sativa; settings: preemergence
Procedure, shortened: as §2

[17] = tested on: barnyardgrass; assay: Test B pre-/postemergence herbicide test; type: in vivo, Echinochloa crus-galli
Procedure, shortened: as §4

[18] = tested on: wheat; assay: Test B postemergence herbicide test; type: in vivo, Triticum aestivum; parameters: key to Wheat plant response rating: 0 = no effect, 100 = complete control; settings: scale 0 (no effect) to 100 (complete control); for Plant response rating, Wheat: Postemergence, 500 g ai/ha, visual rating after 13 to 15 days; for Wheat plant response rating: postemergence, 125 g ai/ha, visual rating
Procedure, shortened: as §3

[19] = tested on: large crabgrass; assay: Test B pre-/postemergence herbicide test; type: in vivo, Digitaria sanguinalis
Procedure, shortened: as §2

[20] = tested on: small flower umbrella sedge; assay: Test B flooded paddy test; type: in vivo, Cyperus difformis; settings: 1000 g ai/ha, visual rating, scale 0 to 100 (0 no effect, 100 complete control), 13 to 15 days
Procedure, shortened: as §1

[21] = tested on: cocklebur; assay: Test B pre-/postemergence herbicide test; type: in vivo, Xanthium strumarium
Procedure, shortened: as §4

[22] = tested on: rice; assay: Test C flooded paddy test; type: in vivo, Oryza sativa; settings: for Plant response rating, Rice: 500 g ai/ha, visual rating after 12 to 14 days
Procedure, shortened: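 Injury scored visually against controls on a 0 (no effect) to 100 (complete control) scale, 12 to 14 days after treatment in greenhouse. Flooded paddy plants treated at 2-leaf stage; postemergence plants at 1- to 4-leaf stage, 2 to 18 cm tall.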

[23] = Postemergence, 500 g ai/ha, visual rating after 13 to 15 days, scale 0 (no effect) to 100 (complete control)
[24] = 125 g ai/ha, scale 0 (no effect) to 100 (complete control)
[25] = preemergence, 125 g ai/ha, 0 to 100 scale, 0 is no effect, 100 is complete control
[26] = Preemergence, 500 g ai/ha, scale 0 to 100
[27] = postemergence, 125 g ai/ha, visual rating, scale 0 (no effect) to 100 (complete control)
[28] = 62 g ai/ha, scale 0 to 100 (0 no effect, 100 complete control)
[29] = 125 g ai/ha, scale of 0 to 100, 0 is no effect, 100 is complete control
[30] = 250 g ai/ha, scale of 0 to 100, 0 is no effect, 100 is complete control
[31] = scale 0 to 100 (0 no effect, 100 complete control)
[32] = 125 g ai/ha, 0 to 100 scale, 0 is no effect, 100 is complete control
[33] = 500 g ai/ha, visual rating 0-100, 0 no effect, 100 complete control, preemergence

CCOC(=O)c1cc(NC(=O)c2cc(C(C)(C)C)nn2CC)c(F)cc1OC [Compound 76]
20: Plant response rating, Surinam Grass [2, 23] | Surinam Grass plant response rating [2, 24] | Foxtail, Giant plant response rating [4, 27] | Plant response rating, Barnyardgrass [17, 23] | Wheat plant response rating [18] | Plant response rating, Crabgrass, Large [19, 23]
50: Plant response rating, Blackgrass [3] | Ducksalad plant response rating [7, 29] | Corn plant response rating [9, 26] | Barnyardgrass plant response rating [11, 28] | Plant response rating, Lambsquarters [12, 25] | Plant response rating, Rice [16, 32]
80: Plant response rating, Ducksalad [7, 31] | Sedge, Umbrella plant response rating [8, 28] | Barnyardgrass plant response rating [11, 30] | Plant response rating, Barnyardgrass [17, 25] | Plant response rating, Crabgrass, Large [19, 25] | Rice plant response rating [22, 29]
40: Plant response rating, Foxtail, Giant [4, 23] | Plant response rating, Oat, Wild [13] | Plant response rating, Velvetleaf [14, 23] | Velvetleaf plant response rating [14, 24] | Cocklebur plant response rating [21, 26] | Cocklebur plant response rating [21, 27]
90: Plant response rating, Foxtail, Giant [4, 25] | Plant response rating, Sedge, Umbrella [8, 31] | Plant response rating, Barnyardgrass [11, 31] | Crabgrass, Large plant response rating [19, 26] | Plant response rating, Cocklebur [21, 23] | Plant response rating, Rice [22, 31]
45: Ducksalad plant response rating [7, 28]
30: Plant response rating, Corn [9, 23] | Plant response rating, Corn [9, 25] | Lambsquarters plant response rating [12, 24] | Oat, Wild plant response rating [13] | Plant response rating, Velvetleaf [14, 25] | Plant response rating, Wheat [18]
100: Foxtail, Giant plant response rating [4, 26] | Plant response rating, Pigweed [5, 23] | Pigweed plant response rating [5, 24] | Plant response rating, Pigweed [5, 25] | Ducksalad plant response rating [10] | Barnyardgrass plant response rating [17, 26]
85: Sedge, Umbrella plant response rating [8, 29] | Sedge, Umbrella plant response rating [8, 30] | Rice plant response rating [22, 30]
70: Barnyardgrass plant response rating [1] | Plant response rating, Surinam Grass [2, 25] | Barnyardgrass plant response rating [11, 29]
10: Blackgrass plant response rating [3] | Corn plant response rating [9, 27] | Plant response rating, Morningglory [15, 23] | Morningglory plant response rating [15, 24] | Plant response rating, Morningglory [15, 25] | Barnyardgrass plant response rating [17, 27] | Crabgrass, Large plant response rating [19, 27]
60: Rice plant response rating [6] | Plant response rating, Lambsquarters [12, 23] | Sedge, Umbrella plant response rating [20]
75: Ducksalad plant response rating [7, 30] | Rice plant response rating [22, 28]

CCn1nc(C(C)(C)C)cc1C(=O)Nc1ccc(OC)c(C(=O)OC(C)C)c1 [Compound 101]
60: Plant response rating, Foxtail, Giant [4, 33]
30: Plant response rating, Surinam Grass [2, 33] | Plant response rating, Foxtail, Giant [4, 23] | Barnyardgrass plant response rating [11, 30] | Oat, Wild plant response rating [13] | Plant response rating, Velvetleaf [14, 23] | Plant response rating, Rice [16, 32]
50: Plant response rating, Barnyardgrass [11, 31] | Plant response rating, Oat, Wild [13] | Plant response rating, Velvetleaf [14, 33] | Plant response rating, Crabgrass, Large [19, 25]
25: Plant response rating, Rice [22, 31]
10: Surinam Grass plant response rating [2, 24] | Plant response rating, Surinam Grass [2, 25] | Corn plant response rating [9, 27] | Plant response rating, Morningglory [15, 33] | Plant response rating, Morningglory [15, 23] | Morningglory plant response rating [15, 24] | Plant response rating, Morningglory [15, 25] | Barnyardgrass plant response rating [17, 27] | Wheat plant response rating [18] | Crabgrass, Large plant response rating [19, 27]
20: Plant response rating, Surinam Grass [2, 23] | Blackgrass plant response rating [3] | Foxtail, Giant plant response rating [4, 27] | Plant response rating, Foxtail, Giant [4, 25] | Sedge, Umbrella plant response rating [8, 28] | Plant response rating, Corn [9, 25] | Barnyardgrass plant response rating [11, 29] | Velvetleaf plant response rating [14, 24] | Plant response rating, Velvetleaf [14, 25] | Plant response rating, Barnyardgrass [17, 23] | Plant response rating, Wheat [18] | Plant response rating, Crabgrass, Large [19, 23] | Cocklebur plant response rating [21, 27]
90: Plant response rating, Pigweed [5, 23] | Plant response rating, Sedge, Umbrella [8, 31] | Ducksalad plant response rating [10] | Plant response rating, Lambsquarters [12, 23] | Plant response rating, Crabgrass, Large [19, 33] | Plant response rating, Cocklebur [21, 33]
75: Plant response rating, Ducksalad [7, 31] | Sedge, Umbrella plant response rating [8, 29]
70: Barnyardgrass plant response rating [1] | Plant response rating, Barnyardgrass [17, 33]
100: Plant response rating, Pigweed [5, 33] | Plant response rating, Pigweed [5, 25] | Plant response rating, Lambsquarters [12, 33] | Plant response rating, Lambsquarters [12, 25]
80: Pigweed plant response rating [5, 24] | Rice plant response rating [6] | Sedge, Umbrella plant response rating [8, 30] | Lambsquarters plant response rating [12, 24] | Sedge, Umbrella plant response rating [20] | Plant response rating, Cocklebur [21, 23]
40: Plant response rating, Blackgrass [3] | Ducksalad plant response rating [7, 30] | Plant response rating, Corn [9, 33] | Plant response rating, Corn [9, 23] | Plant response rating, Rice ([16]; 500 g ai/ha, visual rating 0-100, 0 no effect, 100 complete control) | Plant response rating, Barnyardgrass [17, 25]
0: Ducksalad plant response rating [7, 28] | Ducksalad plant response rating [7, 29] | Barnyardgrass plant response rating [11, 28] | Plant response rating, Cocklebur [21, 25] | Rice plant response rating [22, 28] | Rice plant response rating [22, 29] | Rice plant response rating [22, 30]
